US9315490B2, “2,5-substituted pyrimidines” (Grünenthal GmbH, priority 2014, dated 2016)

Target: T1, human PDE4B1 (Homo sapiens, UniProt Q07343)
T1 construct: host or cells: Sf9 cells
Assay: TR-FRET assay using the LANCE Ultra cAMP kit to determine the activity of hPDE4B1
Assay type: biochemical
Details: test concentration 1 μM, 1 µM
Text: TR-FRET Assay Using the LANCE® Ultra cAMP Kit to Determine the Activity of hPDE4B1
The effects of the compounds on the activity of the human PDE4B1 was quantified by measuring the production of 5′AMP from cAMP using a human recombinant enzyme expressed in Sf9 cells and the LANCE® Ultra cAMP kit, a TR-FRET detection method from PerkinElmer. The human PDE4B1 enzyme was purchased from SignalChem Lifesciences (Catalog# P92-31BG, Lot# H296-2).
The test compound, reference compound or water (control) was mixed with the enzyme (0.96 U) in a reaction buffer containing 50 mM Tris-HCl, 50 mM MgCl2 and 5 mM DTT (pH 8.5). Thereafter, the reaction was initiated by addition of 500 nM cAMP (substrate) and the mixture was incubated for 30 minutes at room temperature. For control basal measurements, the enzyme was omitted from the reaction mixture. After 30 minutes, the reaction was stopped and diluted by a factor of 100 with the reaction buffer supplemented with 500 μM IBMX. The fluorescence donor (europium chelate-labeled cAMP) and the fluorescence acceptor (anti-cAMP antibody labeled with the ULight™ dye) were then added together with 500 μM IBMX to a 10 μl aliquot. After 60 minutes, the fluorescence transfer corresponding to the amount of residual cAMP was measured at λex=337 nm, λem=620 nm and λem=665 nm using a microplate reader (PHERAstar, BMG). The enzyme activity was determined by dividing the signal measured at 665 nm by that measured at 620 nm (ratio) multiplied by 10000. The results were expressed as percent inhibition of the control enzyme activity. IC50 values (IC50=concentration causing a half-maximal inhibition of control specific activity) were derived from dose response measurements with ten different concentrations (n=3; N=1-3).

T1 sequence (Q07343 whole entry): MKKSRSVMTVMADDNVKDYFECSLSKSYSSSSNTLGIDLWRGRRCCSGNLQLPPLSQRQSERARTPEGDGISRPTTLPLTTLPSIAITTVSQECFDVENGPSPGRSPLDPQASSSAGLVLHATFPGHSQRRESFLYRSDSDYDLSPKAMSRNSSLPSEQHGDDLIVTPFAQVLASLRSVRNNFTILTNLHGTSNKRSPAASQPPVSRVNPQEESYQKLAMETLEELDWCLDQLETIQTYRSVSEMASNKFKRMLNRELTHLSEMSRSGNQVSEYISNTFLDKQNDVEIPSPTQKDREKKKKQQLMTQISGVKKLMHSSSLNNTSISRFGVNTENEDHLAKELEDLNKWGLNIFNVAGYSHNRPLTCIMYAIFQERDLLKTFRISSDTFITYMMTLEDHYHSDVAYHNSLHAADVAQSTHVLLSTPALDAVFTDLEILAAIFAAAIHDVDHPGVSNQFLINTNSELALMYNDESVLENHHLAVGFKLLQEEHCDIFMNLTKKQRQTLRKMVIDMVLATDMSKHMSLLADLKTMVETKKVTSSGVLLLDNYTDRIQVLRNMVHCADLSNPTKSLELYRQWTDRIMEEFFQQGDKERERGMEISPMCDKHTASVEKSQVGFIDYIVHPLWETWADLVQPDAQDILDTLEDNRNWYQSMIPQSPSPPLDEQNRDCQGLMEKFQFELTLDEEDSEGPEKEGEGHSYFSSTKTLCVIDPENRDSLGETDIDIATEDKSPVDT

| Compound | Inhibition in % (inhibition of PDE4B) |
| --- | --- |
| Cc1ccnc(-c2cnc(-n3cc([S+](C)[O-])c4ccc(C(=O)N5CCOCC5)cc43)nc2)c1 (single isomer, unassigned) [Example 352, (1-(5-(4-Methylpyridin-2-yl)pyrimidin-2-yl)-3-(methylsulfinyl)-1H-indol-6-yl)(morpholino)methanone] | 95% |

Same assay, conditions: test concentration 1 μM, read-out: Inhibition in % (inhibition of PDE4B)

| Compound | inhibition at 1 µM |
| --- | --- |
| Cc1ccnc(-c2cnc(-n3cc([S+](C)[O-])c4ccc(C(=O)N5CCOCC5)cc43)nc2)c1 (single isomer, unassigned) [Example 351, (1-(5-(4-Methylpyridin-2-yl)pyrimidin-2-yl)-3-(methylsulfinyl)-1H-indol-6-yl)(morpholino)methanone] | 93% |
| CSc1cn(-c2ncc(-c3ccccc3F)cn2)c2cc(C(=O)N3CCOCC3)ccc12 [Example 1d, (1-(5-(2-Fluorophenyl)pyrimidin-2-yl)-3-(methylthio)-1H-indol-6-yl)(morpholino)methanone] | 89% |
| C[S+]([O-])c1cn(-c2ncc(-c3ccccc3F)cn2)c2cc(C(=O)N3CC4CNCC4C3)ccc12 (stereo not shown) [Example 222, (1-(5-(2-Fluorophenyl)pyrimidin-2-yl)-3-(methylsulfinyl)-1H-indol-6-yl)(hexahydropyrrolo[3,4-c]pyrrol-2(1H)-yl)methanone] | 73% |
| Cc1ccnc(-c2cnc(-n3cc([S+](C)[O-])c4ccc(C(=O)N5C[C@@H]6C[C@H]5CN6)cc43)nc2)c1 (stereo partly drawn) [Example 245, (1S,4S)-2,5-Diazabicyclo[2.2.1]heptan-2-yl(1-(5-(4-methylpyridin-2-yl)pyrimidin-2-yl)-3-(methylsulfinyl)-1H-indol-6-yl)methanone] | 86% |
| CCc1ccnc(-c2cnc(-n3cc([S+](C)[O-])c4ccc(C(=O)N5C[C@@H]6C[C@H]5CN6)cc43)nc2)c1 (stereo partly drawn) [Example 246, (1S,4S)-2,5-Diazabicyclo[2.2.1]heptan-2-yl(1-(5-(4-ethylpyridin-2-yl)pyrimidin-2-yl)-3-(methylsulfinyl)-1H-indol-6-yl)methanone] | 96% |
| Cc1cccc(-c2cnc(-n3cc([S+](C)[O-])c4ccc(C(=O)N5C[C@@H]6C[C@H]5CN6)cc43)nc2)n1 (stereo partly drawn) [Example 247, (1S,4S)-2,5-Diazabicyclo[2.2.1]heptan-2-yl(1-(5-(6-methylpyridin-2-yl)pyrimidin-2-yl)-3-(methylsulfinyl)-1H-indol-6-yl)methanone] | 90% |
| CN(C)c1ccnc(-c2cnc(-n3cc([S+](C)[O-])c4ccc(C(=O)N5C[C@@H]6C[C@H]5CN6)cc43)nc2)c1 (stereo partly drawn) [Example 248, (1S,4S)-2,5-Diazabicyclo[2.2.1]heptan-2-yl(1-(5-(4-(dimethylamino)pyridin-2-yl)pyrimidin-2-yl)-3-(methylsulfinyl)-1H-indol-6-yl)methanone] | 97% |
| Cc1ccc(F)c(-c2cnc(-n3cc([S+](C)[O-])c4ccc(C(=O)N5C[C@@H]6C[C@H]5CN6)cc43)nc2)c1 (stereo partly drawn) [Example 249, (1S,4S)-2,5-Diazabicyclo[2.2.1]heptan-2-yl(1-(5-(2-fluoro-5-methylphenyl)pyrimidin-2-yl)-3-(methylsulfinyl)-1H-indol-6-yl)methanone] | 93% |
| CC(C)c1ccnc(-c2cnc(-n3cc([S+](C)[O-])c4ccc(C(=O)N5CCOCC5)cc43)nc2)c1 (stereo not shown) [Example 256, (1-(5-(4-Isopropylpyridin-2-yl)pyrimidin-2-yl)-3-(methylsulfinyl)-1H-indol-6-yl)(morpholino)methanone] | 96% |
| CC#Cc1ccnc(-c2cnc(-n3cc([S+](C)[O-])c4ccc(C(=O)N5CCOCC5)cc43)nc2)c1 (stereo not shown) [Example 257, (3-(Methylsulfinyl)-1-(5-(4-(prop-1-yn-1-yl)pyridin-2-yl)pyrimidin-2-yl)-1H-indol-6-yl)(morpholino)methanone] | 93% |
| C[S+]([O-])c1cn(-c2ncc(-c3cc(C4CC4)ccn3)cn2)c2cc(C(=O)N3CCOCC3)ccc12 (stereo not shown) [Example 258, (1-(5-(4-Cyclopropylpyridin-2-yl)pyrimidin-2-yl)-3-(methylsulfinyl)-1H-indol-6-yl)(morpholino)methanone] | 92% |
| CCc1ccnc(-c2cnc(-n3cc([S+](C)[O-])c4ccc(C(=O)N5CCOCC5)cc43)nc2)c1 (stereo not shown) [Example 259] | 95% |
| CCOc1ccnc(-c2cnc(-n3cc([S+](C)[O-])c4ccc(C(=O)N5CCOCC5)cc43)nc2)c1 (stereo not shown) [Example 260, (1-(5-(4-Ethoxypyridin-2-yl)pyrimidin-2-yl)-3-(methylsulfinyl)-1H-indol-6-yl)(morpholino)methanone] | 95% |
| CCOc1ccc(F)c(-c2cnc(-n3cc([S+](C)[O-])c4ccc(C(=O)N5CCOCC5)cc43)nc2)c1 (stereo not shown) [Example 261, (1-(5-(5-Ethoxy-2-fluorophenyl)pyrimidin-2-yl)-3-(methylsulfinyl)-1H-indol-6-yl)(morpholino)methanone] | 55% |
| C[S+]([O-])c1cn(-c2ncc(-c3ccc4c(c3)OCO4)cn2)c2cc(C(=O)N3CCOCC3)ccc12 (stereo not shown) [Example 262, (1-(5-(Benzo[d][1,3]dioxol-5-yl)pyrimidin-2-yl)-3-(methylsulfinyl)-1H-indol-6-yl)(morpholino)methanone] | 70% |
| C[S+]([O-])c1cn(-c2ncc(-c3cc(OC(F)(F)F)ccc3F)cn2)c2cc(C(=O)N3CCOCC3)ccc12 (stereo not shown) [Example 263, (1-(5-(2-Fluoro-5-(trifluoromethoxy)phenyl)pyrimidin-2-yl)-3-(methylsulfinyl)-1H-indol-6-yl)(morpholino)methanone] | 97% |
| CC(=O)Oc1ccc(F)c(-c2cnc(-n3cc([S+](C)[O-])c4ccc(C(=O)N5CCOCC5)cc43)nc2)c1 (stereo not shown) [Example 264, 4-Fluoro-3-(2-(3-(methylsulfinyl)-6-(morpholine-4-carbonyl)-1H-indol-1-yl)pyrimidin-5-yl)phenyl acetate] | 94% |
| Cc1ccc(F)c(-c2cnc(-n3cc([S+](C)[O-])c4ccc(C(=O)N5CCCC5)cc43)nc2)c1 (stereo not shown) [Example 265, (1-(5-(2-Fluoro-5-methylphenyl)pyrimidin-2-yl)-3-(methylsulfinyl)-1H-indol-6-yl)(pyrrolidin-1-yl)methanone] | 98% |

Same assay, conditions: test concentration 10 μM (marked in cell), 10 µM

| Compound | Inhibition in % (inhibition of PDE4B) |
| --- | --- |
| CC(O)c1ccc(F)c(-c2cnc(-n3cc(S(C)(=O)=O)c4ccc(C(=O)N5CCOCC5)cc43)nc2)c1 (single isomer, unassigned) [Example 345, (1-(5-(2-Fluoro-5-(1-hydroxyethyl)phenyl)pyrimidin-2-yl)-3-(methylsulfonyl)-1H-indol-6-yl)(morpholino)methanone] | 95 (10 μM) % |

Same assay, conditions: test concentration 10 μM (marked in cell), read-out: Inhibition in % (inhibition of PDE4B)

| Compound | inhibition at 10 µM |
| --- | --- |
| CN(CC(N)=O)C(=O)c1ccc2c([S+](C)[O-])cn(-c3ncc(-c4cc(C5CC5)ccc4F)cn3)c2c1 (single isomer, unassigned) [Example 335, N-(2-Amino-2-oxoethyl)-1-(5-(5-cyclopropyl-2-fluorophenyl)pyrimidin-2-yl)-N-methyl-3-(methylsulfinyl)-1H-indole-6-carboxamide] | 100% |
| CC(O)c1ccc(F)c(-c2cnc(-n3cc(S(C)(=O)=O)c4ccc(C(=O)N5CCOCC5)cc43)nc2)c1 (single isomer, unassigned) [Example 344, (1-(5-(2-Fluoro-5-(1-hydroxyethyl)phenyl)pyrimidin-2-yl)-3-(methylsulfonyl)-1H-indol-6-yl)(morpholino)methanone] | 96% |
